In patent US9783573B2, “IAP antagonists” (BRISTOL-MYERS SQUIBB COMPANY, priority 2012, dated 2017):
pIC50: −log10 of the molar value.

What was measured:
Assay type in all cases: binding
[1] = biological target: His-BIR2-3 (125-356, C202A/C213G, XIAP) (Homo sapiens (Human), UniProt P98170, C202A/C213G); test: XIAP-BIR2-3 Dimeric SMAC Peptide Homogeneous Time Resolved Fluorescence (HTRF) Assay; conditions: fluorescein labeled dimeric SMAC peptide
Procedure: D. XIAP-BIR2-3 Dimeric SMAC Peptide Homogeneous Time Resolved Fluorescence (HTRF) Assay
(§1) Assays were performed in black, flat-bottom, 384-well plates.

His-BIR3 (241-356, XIAP) = His-BIR3 (241-356, XIAP) (Homo sapiens (Human), UniProt P98170); test: XIAP-BIR3/SMAC Homogeneous Time Resolved Fluorescence (HTRF) Assay; conditions: fluorescein labeled SMAC peptide
Procedure: B. XIAP-BIR3/SMAC Homogeneous Time Resolved Fluorescence (HTRF) Assay
as §1

[2] = biological target: N-His-Tb-BIR3 (241-356, XIAP) (Homo sapiens (Human), UniProt P98170); test: biochemical; conditions: fluoresceinated modified SMAC peptide, fluorescence polarization; read-out: XIAP BIR3 FPA IC50

Row | SMILES | pIC50 [1] | pIC50 (His-BIR3 (241-356, XIAP)) | pIC50 [2]
1 | CN[C@@H](C)C(=O)N[C@H](C(=O)N1Cc2ccc(NC(=O)c3ccc(C(=O)N[C@H]4C[C@@H](C(=O)N[C@@H]5CCCc6ccccc65)N(C(=O)[C@@H](NC(=O)[C@H](C)NC)C(C)(C)C)C4)cc3)cc2C[C@H]1C(=O)N[C@@H]1CCCc2ccccc21)C(C)(C)C [Example 2, N^1—((S)-2-((S)-3,3-Dimethyl-2-((S)-2-(methylamino)propanamido)butanoyl)-3-(((R)-1,2,3,4-tetrahydronaphthalen-1-yl)carbamoyl)-1,2,3,4-tetrahydroisoquinolin-6-yl)-N^4-((3S,5S)-1-((S)-3,3-dimethyl-2-((S)-2-(methylamino)propanamido)butanoyl)-5-(((R)-1,2,3,4-tetrahydronaphthalen-1-yl)carbamoyl)pyrrolidin-3-yl)terephthalamide] | 8.40 |  | 
2 | CN[C@@H](C)C(=O)N[C@H](C(=O)N1Cc2cc(NC(=O)c3ccc(C(=O)N[C@H]4C[C@@H](C(=O)N[C@@H]5CCCc6ccccc65)N(C(=O)[C@@H](NC(=O)[C@H](C)NC)C(C)(C)C)C4)cc3)ccc2C[C@H]1C(=O)N[C@H](C)c1ccccc1F)C(C)(C)C [Example 11, N^1-((S)-2-((S)-3,3-Dimethyl-2-((S)-2-(methylamino)propanamido)butanoyl)-3-(((R)-1-(2-fluorophenyl)ethyl)carbamoyl)-1,2,3,4-tetrahydroisoquinolin-7-yl)-N^4-((3S,5S)-1-((S)-3,3-dimethyl-2-((S)-2-(methylamino)propanamido)butanoyl)-5-(((R)-1,2,3,4-tetrahydronaphthalen-1-yl)carbamoyl)pyrrolidin-3-yl)terephthalamide] | 7.92 | 7.74 | 
3 | CCN[C@@H](C)C(=O)N[C@H](C(=O)N[C@H](C(=O)N1Cc2cc(OCc3ccc(C(=O)N[C@H]4C[C@@H](C(=O)N[C@@H]5CCCc6ccccc65)N(C(=O)[C@@H](NC(=O)[C@H](C)NC)C(C)(C)C)C4)cc3)ccc2C[C@H]1C(=O)N[C@@H]1CCCc2ccccc21)C(C)(C)C)C(C)(C)C [Example 40, (S)-7-((4-(((3S,5S)-1-((S)-3,3-Dimethyl-2-((S)-2-(methylamino)propanamido)butanoyl)-5-(((R)-1,2,3,4-tetrahydronaphthalen-1-yl)carbamoyl)pyrrolidin-3-yl)carbamoyl)benzyl)oxy)-2-((S)-2-((S)-2-((S)-2-(ethylamino)propanamido)-3,3-dimethylbutanamido)-3,3-dimethylbutanoyl)-N-((R)-1,2,3,4-tetrahydronaphthalen-1-yl)-1,2,3,4-tetrahydroisoquinoline-3-carboxamide] |  |  | 6.18
4 | CN[C@@H](C)C(=O)N[C@H](C(=O)N1Cc2ccc(OCc3ccc(C(=O)N[C@H]4C[C@@H](C(=O)N[C@@H]5CCCc6ccccc65)N(C(=O)[C@@H](NC(=O)[C@H](C)NC)C(C)(C)C)C4)cc3)cc2C[C@H]1C(=O)N[C@@H]1CCCc2ccccc21)C(C)(C)C [Example 41, (S)-2-((S)-3,3-Dimethyl-2-((S)-2-(methylamino)propanamido)butanoyl)-6-((4-(((3S,5S)-1-((S)-3,3-dimethyl-2-((S)-2-(methylamino)propanamido)butanoyl)-5-(((R)-1,2,3,4-tetrahydronaphthalen-1-yl)carbamoyl)pyrrolidin-3-yl)carbamoyl)benzyl)oxy)-N-((R)-1,2,3,4-tetrahydronaphthalen-1-yl)-1,2,3,4-tetrahydroisoquinoline-3-carboxamide] |  |  | 7.19
5 | CN[C@@H](C)C(=O)N[C@H](C(=O)N1Cc2ccc(OCc3ccc(C(=O)N[C@H]4C[C@@H](C(=O)NC5CCCc6ccccc65)N(C(=O)[C@@H](NC(=O)[C@H](C)NC)C(C)(C)C)C4)cc3)cc2C[C@@H]1C(=O)NC1CCCc2ccccc21)C(C)(C)C (stereo partly drawn) [Example 42, (R)-2-((S)-3,3-Dimethyl-2-((S)-2-(methylamino)propanamido)butanoyl)-6-((4-(((3S,5S)-1-((S)-3,3-dimethyl-2-((5)-2-(methylamino)propanamido)butanoyl)-5-(((R)-1,2,3,4-tetrahydronaphthalen-1-yl)carbamoyl)pyrrolidin-3-yl)carbamoyl)benzyl)oxy)-N-((R)-1,2,3,4-tetrahydronaphthalen-1-yl)-1,2,3,4-tetrahydroisoquinoline-3-carboxamide] |  |  | 6.62
6 | CC[C@H](NC)C(=O)N[C@H](C(=O)N1Cc2cc(OCc3ccc(C(=O)N[C@H]4C[C@@H](C(=O)N[C@@H]5CCCc6ccccc65)N(C(=O)[C@@H](NC(=O)[C@H](C)NC)C(C)(C)C)C4)cc3)ccc2C[C@H]1C(=O)N[C@@H]1CCCc2ccccc21)C(C)(C)C [Example 43] |  |  | 6.89
7 | CN[C@@H](C)C(=O)N[C@H](C(=O)N1Cc2cc(OC(=O)c3ccc(C(=O)N[C@H]4C[C@@H](C(=O)N[C@@H]5CCCc6ccccc65)N(C(=O)[C@@H](NC(=O)[C@H](C)NC)C(C)(C)C)C4)cc3)ccc2C[C@H]1C(=O)N[C@@H]1CCCc2ccccc21)C(C)(C)C [Example 46, (S)-2-((S)-3,3-Dimethyl-2-((S)-2-(methylamino)propanamido)butanoyl)-3-(((R)-1,2,3,4-tetrahydronaphthalen-1-yl)carbamoyl)-1,2,3,4-tetrahydroisoquinolin-7-yl 4-(((3S,5S)-1-((S)-3,3-dimethyl-2-((S)-2-(methylamino)propanamido)butanoyl)-5-(((R)-1,2,3,4-tetrahydronaphthalen-1-yl)carbamoyl)pyrrolidin-3-yl)carbamoyl)benzoate] |  |  | 7.16
8 | CN[C@@H](C)C(=O)N[C@H](C(=O)N1Cc2cc(NC(=O)c3ccc(CO[C@H]4C[C@@H](C(=O)N[C@@H]5CCCc6ccccc65)N(C(=O)[C@@H](NC(=O)[C@H](C)NC)C(C)(C)C)C4)cc3)ccc2C[C@H]1C(=O)N[C@@H]1CCCc2ccccc21)C(C)(C)C [Example 47, (S)-2-((S)-3,3-Dimethyl-2-((S)-2-(methylamino)propanamido)butanoyl)-7-(4-((((3S,5S)-1-((S)-3,3-dimethyl-2-((S)-2-(methylamino)propanamido)butanoyl)-5-(((R)-1,2,3,4-tetrahydronaphthalen-1-yl)carbamoyl)pyrrolidin-3-yl)oxy)methyl)benzamido)-N—((R)-1,2,3,4-tetrahydronaphthalen-1-yl)-1,2,3,4-tetrahydroisoquinoline-3-carboxamide] |  |  | 7.17
9 | CN[C@@H](C)C(=O)N[C@H](C(=O)N1Cc2cc(OC(=O)c3ccc(CO[C@H]4C[C@@H](C(=O)N[C@@H]5CCCc6ccccc65)N(C(=O)[C@@H](NC(=O)[C@H](C)NC)C(C)(C)C)C4)cc3)ccc2C[C@H]1C(=O)N[C@@H]1CCCc2ccccc21)C(C)(C)C [Example 48, (S)-2-((S)-3,3-Dimethyl-2-((S)-2-(methylamino)propanamido)butanoyl)-3-(((R)-1,2,3,4-tetrahydronaphthalen-1-yl)carbamoyl)-1,2,3,4-tetrahydroisoquinolin-7-yl 4-((((3S,5S)-1-((S)-3,3-dimethyl-2-((S)-2-(methylamino)propanamido)butanoyl)-5-(((R)-1,2,3,4-tetrahydronaphthalen-1-yl)carbamoyl)pyrrolidin-3-yl)oxy)methyl)benzoate] |  |  | 7.04
10 | CN[C@@H](C)C(=O)N[C@H](C(=O)N1Cc2cc(NC(=O)c3ccc(CO[C@H]4C[C@@H](C(=O)N[C@@H]5CCCc6ccccc65)N(C(=O)[C@@H](NC(=O)[C@H](C)NC)C(C)(C)C)C4)cc3)ccc2C[C@H]1C(=O)N[C@H](C)c1ccccc1F)C(C)(C)C [Example 50, (S)-2-((S)-3,3-Dimethyl-2-((S)-2-(methylamino)propanamido)butanoyl)-7-(4-((((3S,5S)-1-((S)-3,3-dimethyl-2-((S)-2-(methylamino)propanamido)butanoyl)-5-(((R)-1,2,3,4-tetrahydronaphthalen-1-yl)carbamoyl)pyrrolidin-3-yl)oxy)methyl)benzamido)-N-((R)-1-(2-fluorophenyl)ethyl)-1,2,3,4-tetrahydroisoquinoline-3-carboxamide] |  |  | 7.28
11 | CN[C@@H](C)C(=O)N[C@H](C(=O)N1Cc2cc(NC(=O)c3cccc(CO[C@H]4C[C@@H](C(=O)N[C@@H]5CCCc6ccccc65)N(C(=O)[C@@H](NC(=O)[C@H](C)NC)C(C)(C)C)C4)c3)ccc2C[C@H]1C(=O)N[C@@H]1CCCc2ccccc21)C(C)(C)C [Example 52, (S)-2-((S)-3,3-Dimethyl-2-((S)-2-(methylamino)propanamido)butanoyl)-7-(3-((((3S,5S)-1-((S)-3,3-dimethyl-2-((S)-2-(methylamino)propanamido)butanoyl)-5-(((R)-1,2,3,4-tetrahydronaphthalen-1-yl)carbamoyl)pyrrolidin-3-yl)oxy)methyl)benzamido)-N-((R)-1,2,3,4-tetrahydronaphthalen-1-yl)-1,2,3,4-tetrahydroisoquinoline-3-carboxamide] |  |  | 7.38
12 | CN[C@@H](C)C(=O)N[C@H](C(=O)N1Cc2cc(NC(=O)c3ccc4ccn(C(=O)NC5C[C@@H](C(=O)NC6CCCc7ccccc76)N(C(=O)[C@@H](NC(=O)[C@H](C)NC)C(C)(C)C)C5)c4c3)ccc2C[C@H]1C(=O)NC1CCCc2ccccc21)C(C)(C)C (stereo partly drawn) [Example 53, N^6-((3S)-2-((S)-3,3-Dimethyl-2-((S)-2-(methylamino)propanamido)butanoyl)-3-((1,2,3,4-tetrahydronaphthalen-1-yl)carbamoyl)-1,2,3,4-tetrahydroisoquinolin-7-yl)-N^1-((5S)-1-((S)-3,3-dimethyl-2-((S)-2-(methylamino)propanamido)butanoyl)-5-((1,2,3,4-tetrahydronaphthalen-1-yl)carbamoyl)pyrrolidin-3-yl)-1H-indole-1,6-dicarboxamide] |  |  | 6.85
